Experimental data: patent US20070232698A1, “Slimming Skin External Preparation and Cosmetic Containing the Same” (priority 2004, published 2007)

Key:
[1] = tested on: human skin tissue three dimensional model (TESTSKIN LSD-d)
Procedure: The test substances were each dissolved in Dulbecco's PBS (−) to give a 1% by mass solution of the test substance. The test substance solutions were placed, each 50 μL, to a tissue surface of human skin tissue three dimensional model (TESTSKIN™ LSD-d, available from TOYOBO CO., LTD.), and were incubated at 37° C. in a 5% CO2 atmosphere for 2 hours. Thereafter the test substance solutions were aspirated out, and the skin models were further incubated at 37° C. in a 5% CO2 atmosphere for 2, 6 or 12 hours. The skin models were sampled after the lapse of each of the incubation times. The skin models sampled at the incubation times were washed with Dulbecco's PBS (−), and the tissue surfaces on which the test substances had been placed were punched out with a punch 6 mm in diameter. The skin models were then homogenated in a HEPES buffer solution (pH: 7.2), and were quantitatively analyzed using a high performance liquid chromatography to determine the carnitine content in the skin model.
From the analysis results, the carnitine contents in the skin models (unit: nmol/mg skin protein) were obtained for the test substances at each of the incubation times.

[2] = tested on: skin together with subcutaneous fat tissues; test: Subcutaneous fat breakdown test (rat abdominal skin with subcutaneous fat in Franz diffusion cell); details: lower cell PBS (−), 37° C., average of three measurements, control (none) 20
Procedure: A male Wister rat, 10 weeks old, was shaved on the abdomen, and the skin was removed together with subcutaneous fat tissues and was placed in a Franz diffusion cell. An upper cell on the skin surface was filled with a buffer solution containing the Example 1 test substance, and a lower cell was filled with Dulbecco's PBS (−). The diffusion cell was held at 37° C. and was allowed to stand for 8 or 16 hours. After the lapse of each of the standing times, PBS (−) was withdrawn from the lower cell. The content of free glycerol resulting from the fat breakdown was measured with use of Glycerol Test E Wako. The results are averages of three measurements.
The free glycerol contents were measured in the same manner as in Example 3, except that the two carnitine and carnitine derivative 1) and 6) used in Example 4 were tested. The results are averages of three measurements.
The free glycerol contents were measured in the same manner as in Example 3, except that the three carnitine and carnitine derivatives 1), 7) and 8) used in Example 7 were tested. The results are averages of three measurements.

Mouse 3T3 adipocytes = test: Measurement of fat metabolic activity for mouse 3T3 adipocytes (free glycerol in culture medium); assay type: cell-based; details: 250 μM test substance, medium recovered after 24 hours; control (none) = 100
Procedure: The five carnitine and carnitine derivatives 1) to 5) used in Example 1 were tested. The fat metabolic activity was measured and compared by quantitative determination of glycerol in the culture medium based on the fact that metabolism of the fat accumulated in adipocytes releases glycerol and free fatty acid to the culture medium.
Mouse 3T3 cells as the preadipocytes were disseminated on a 10 cm-diameter dish such that 1×10^4 cells were on the dish. […] Thereafter, the culture medium was replaced with a 10% FCS-containing DMEM culture medium that contained […] of dexamethasone, 0.5 mM of isobutylmethylxanthine and 10 μg/ml of insulin, and incubation was continued for another 2 days. Subsequently, the culture medium was replaced again with a 10% FCS-containing ordinary DMEM culture medium, and incubation was performed for another week, resulting in differentiation of the preadipocytes into adipocytes. Next, the culture medium was replaced with an ordinary culture medium that contained 250 μM of the carnitine or carnitine derivative of the five substances 1) to 5) used in Example 1, and the culture medium was recovered after 24 hours. The cells were washed with Dulbecco's PBS (−) and were recovered. Cells incubated in the absence of the test substances were used as the control. The glycerol content in the culture medium was quantitatively determined using Glycerol Test E Wako (Wako Pure Chemical Industries, Ltd.).
The fat metabolic activity for mouse 3T3 adipocytes was determined based on the free glycerol content in the same manner as in Example 2, except that the two carnitine and carnitine derivative 1) and 6) used in Example 4 were tested.
The fat metabolic activity for mouse 3T3 adipocytes was determined based on the free glycerol content in the same manner as in Example 2, except that the three carnitine and carnitine derivatives 1), 7) and 8) used in Example 7 were tested.

| SMILES | carnitine content in the skin model, After 2-hour incubation [1] [nmol/mg skin protein] | carnitine content in the skin model, After 6-hour incubation [1] [nmol/mg skin protein] | carnitine content in the skin model, After 12-hour incubation [1] [nmol/mg skin protein] | Free glycerol, After 8 hours [2] [µmol/mL] | Free glycerol, After 16 hours [2] [µmol/mL] | Free glycerol content (% relative to the control) (Mouse 3T3 adipocytes) |
| --- | --- | --- | --- | --- | --- | --- |
| CCCCCCCCCCCCCC(=O)O[C@H](CC(=O)O)C[N+](C)(C)C.[Cl-] [Test substance 3), Tetradecanoyl-L-carnitine hydrochloride] | 6 | 12 | 22 | 112 | 146 | 168 % relative to the control |
| CCCCCCCCCCCCCCCCCC(=O)O[C@H](CC(=O)O)C[N+](C)(C)C.[Cl-] [Test substance 5), Octadecanoyl-L-carnitine hydrochloride] | 5 | 10 | 25 | 117 | 158 | 176 % relative to the control |
